Assay results as given in the NIST ThermoML archive (doi:10.1021/je2010209).

Assay: xn = mol fraction of the nth substance listed
Conditions: 101 kPa, Liquid; for speed of sound: Sing-around technique in a fixed-path interferometer; for mass density: Vibrating tube method

COCCOCCOCCO [2-[2-(2-methoxyethoxy)ethoxy]ethanol] + CCCCn1cc[n+](C)c1.F[B-](F)(F)F
Conditions | mass density [kg/m3] | speed of sound [m/s]
288.15 K, x2 = 0 | 1050.1 | 1470
288.15 K, x2 = 0.024 | 1056.87 | 1484
288.15 K, x2 = 0.107 | 1076.66 | 1510
288.15 K, x2 = 0.2241 | 1099.67 | 1541
288.15 K, x2 = 0.3275 | 1118.29 | 1555
288.15 K, x2 = 0.4285 | 1135.35 | 1564
288.15 K, x2 = 0.5067 | 1147.58 | 1570
288.15 K, x2 = 0.6282 | 1164.47 | 1575
288.15 K, x2 = 0.7072 | 1174.32 | 1581
288.15 K, x2 = 0.8256 | 1188.11 | 1584
288.15 K, x2 = 0.913 | 1197.84 | 1585
293.15 K, x2 = 0 | 1045.75 | 1452
293.15 K, x2 = 0.024 | 1052.52 | 1466
293.15 K, x2 = 0.107 | 1072.57 | 1492
293.15 K, x2 = 0.2241 | 1095.95 | 1519
293.15 K, x2 = 0.3275 | 1114.5 | 1539
293.15 K, x2 = 0.4285 | 1131.41 | 1550
293.15 K, x2 = 0.5067 | 1143.6 | 1555
293.15 K, x2 = 0.6282 | 1160.74 | 1561
293.15 K, x2 = 0.7072 | 1170.79 | 1568
293.15 K, x2 = 0.8256 | 1184.68 | 1572
293.15 K, x2 = 0.913 | 1194.26 | 1573
298.15 K, x2 = 0 | 1041.32 | 1436
298.15 K, x2 = 0.024 | 1048.15 | 1450
298.15 K, x2 = 0.107 | 1068.36 | 1475
298.15 K, x2 = 0.2241 | 1091.87 | 1503
298.15 K, x2 = 0.3275 | 1110.48 | 1524
298.15 K, x2 = 0.4285 | 1127.42 | 1533
298.15 K, x2 = 0.5067 | 1139.64 | 1541
298.15 K, x2 = 0.6282 | 1156.88 | 1548
298.15 K, x2 = 0.7072 | 1167 | 1555
298.15 K, x2 = 0.8256 | 1181.03 | 1560
298.15 K, x2 = 0.913 | 1190.69 | 1560
303.15 K, x2 = 0 | 1036.84 | 1421
303.15 K, x2 = 0.024 | 1043.76 | 1435
303.15 K, x2 = 0.107 | 1064.17 | 1458
303.15 K, x2 = 0.2241 | 1087.79 | 1488
303.15 K, x2 = 0.3275 | 1106.46 | 1509
303.15 K, x2 = 0.4285 | 1123.48 | 1519
303.15 K, x2 = 0.5067 | 1135.77 | 1528
303.15 K, x2 = 0.6282 | 1153.12 | 1534
303.15 K, x2 = 0.7072 | 1163.33 | 1543
303.15 K, x2 = 0.8256 | 1177.39 | 1548
303.15 K, x2 = 0.913 | 1187 | 1549
308.15 K, x2 = 0 | 1032.27 | 1408
308.15 K, x2 = 0.024 | 1039.37 | 1421
308.15 K, x2 = 0.107 | 1060.13 | 1444
308.15 K, x2 = 0.2241 | 1083.76 | 1475
308.15 K, x2 = 0.3275 | 1102.44 | 1494
308.15 K, x2 = 0.4285 | 1119.54 | 1507
308.15 K, x2 = 0.5067 | 1131.91 | 1516
308.15 K, x2 = 0.6282 | 1149.37 | 1523
308.15 K, x2 = 0.7072 | 1159.63 | 1530
308.15 K, x2 = 0.8256 | 1173.68 | 1536
308.15 K, x2 = 0.913 | 1183.36 | 1538
313.15 K, x2 = 0 | 1027.76 | 1393
313.15 K, x2 = 0.024 | 1034.9 | 1406
313.15 K, x2 = 0.107 | 1055.73 | 1431
313.15 K, x2 = 0.2241 | 1079.59 | 1461
313.15 K, x2 = 0.3275 | 1098.41 | 1483
313.15 K, x2 = 0.4285 | 1115.62 | 1493
313.15 K, x2 = 0.5067 | 1128.04 | 1503
313.15 K, x2 = 0.6282 | 1145.63 | 1511
313.15 K, x2 = 0.7072 | 1155.93 | 1518
313.15 K, x2 = 0.8256 | 1170.13 | 1524
313.15 K, x2 = 0.913 | 1179.9 | 1527
318.15 K, x2 = 0 | 1023.3 | 1376
318.15 K, x2 = 0.024 | 1030.54 | 1390
318.15 K, x2 = 0.107 | 1051.51 | 1415
318.15 K, x2 = 0.2241 | 1075.43 | 1447
318.15 K, x2 = 0.3275 | 1094.37 | 1468
318.15 K, x2 = 0.4285 | 1111.73 | 1480
318.15 K, x2 = 0.5067 | 1124.25 | 1490
318.15 K, x2 = 0.6282 | 1141.8 | 1500
318.15 K, x2 = 0.7072 | 1152 | 1506
318.15 K, x2 = 0.8256 | 1166.14 | 1513
318.15 K, x2 = 0.913 | 1176 | 1516
